Columns and labels:
[1] = molecular target: 11-beta-hydroxysteroid dehydrogenase 1 (Mus musculus, UniProt P50172); experiment: Human and Mouse 11beta-HSD1 SPA Assay
Method: (§1) Enzyme assays were performed using purified recombinant human or mouse11beta-HSD1. The fractional conversion of cortisone to cortisol was used to determine enzyme activities. The radioactive cortisol generated in the assay was captured by a monoclonal anti-cortisol antibody and SPA beads coated with anti-mouse antibodies.

[2] = molecular target: 11-beta-hydroxysteroid dehydrogenase 1 (Homo sapiens, UniProt P28845); experiment: Human and Mouse 11beta-HSD1 SPA Assay; settings: pH 7.2; 22 °C
11-beta-hydroxysteroid dehydrogenase 1 (Homo sapiens, UniProt P28845), sequence (P28845 whole entry): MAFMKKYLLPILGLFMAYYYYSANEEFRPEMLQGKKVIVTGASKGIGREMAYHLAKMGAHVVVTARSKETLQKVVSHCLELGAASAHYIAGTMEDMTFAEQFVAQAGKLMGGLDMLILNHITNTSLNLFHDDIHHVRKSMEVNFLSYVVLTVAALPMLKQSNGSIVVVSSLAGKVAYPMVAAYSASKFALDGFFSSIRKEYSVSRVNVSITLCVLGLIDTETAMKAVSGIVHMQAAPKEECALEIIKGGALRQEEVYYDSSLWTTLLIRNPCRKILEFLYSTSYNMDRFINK
Method: as §1

11-beta-hydroxysteroid dehydrogenase 1 (Mus musculus, UniProt P50172), sequence (P50172 whole entry): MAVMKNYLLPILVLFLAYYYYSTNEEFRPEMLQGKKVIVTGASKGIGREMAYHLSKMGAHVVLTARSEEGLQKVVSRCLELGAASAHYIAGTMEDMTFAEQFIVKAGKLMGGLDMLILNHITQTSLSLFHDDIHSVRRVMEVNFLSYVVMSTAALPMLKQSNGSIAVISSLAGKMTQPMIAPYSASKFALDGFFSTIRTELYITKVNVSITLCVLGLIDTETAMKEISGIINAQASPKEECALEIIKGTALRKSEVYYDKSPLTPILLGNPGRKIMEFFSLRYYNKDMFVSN

SMILES	IC50 [1]	IC50 [2]
CC(C)(Oc1ccc(Cl)cc1)C(=O)N[C@H]1C2C[C@@H]3C[C@@H]1C[C@@](COCC(=O)O)(C2)C3 [2-{[(1R,3R,4S,7S)-4-[2-(4-chlorophenoxy)-2-methylpropanamido]adamantan-1-yl]methoxy}acetic acid]	0.21 µM	0.11 µM
CC(C)(Oc1ccc(Cl)cc1)C(=O)N[C@H]1C2C[C@@H]3C[C@@H]1C[C@@](C(=O)NCc1ccc(C(=O)O)cc1)(C2)C3 [4-({[(1R,3R,4S,7S)-4-[2-(4-chlorophenoxy)-2-methylpropanamido]adamantan-1-yl]formamido}methyl)benzoic acid]	0.012 µM	
CC(C)(Oc1ccccc1)C(=O)N[C@H]1C2C[C@@H]3C[C@@H]1C[C@@](C(=O)O)(C2)C3 [(1R,3R,4S,7S)-4-(2-methyl-2-phenoxypropanamido)adamantane-1-carboxylic acid]	0.119 µM	
CC(C)(Oc1ccccc1Cl)C(=O)N[C@H]1C2C[C@@H]3C[C@@H]1C[C@@](C(=O)NS(C)(=O)=O)(C2)C3 [(1R,3R,4S,7S)-4-[2-(2-chlorophenoxy)-2-methylpropanamido]-N-methanesulfonyladamantane-1-carboxamide]	0.028 µM	0.096 µM
CC(C)(Oc1cccc(Cl)c1)C(=O)N[C@H]1C2C[C@@H]3C[C@@H]1C[C@@](C(=O)O)(C2)C3 [(1R,3R,4S,7S)-4-[2-(3-chlorophenoxy)-2-methylpropanamido]adamantane-1-carboxylic acid]	0.051 µM	0.015 µM
CC(C)(Oc1ccc(Cl)cc1)C(=O)N[C@H]1C2C[C@@H]3C[C@@H]1C[C@@](C(=O)NCc1ccncc1)(C2)C3 [(1R,3R,4S,7S)-4-[2-(4-chlorophenoxy)-2-methylpropanamido]-N-(pyridin-4-ylmethyl)adamantane-1-carboxamide]	0.014 µM	0.025 µM
CC(C)(Oc1ccc(Cl)cc1)C(=O)N[C@H]1C2C[C@@H]3C[C@@H]1C[C@@](C(=O)NCc1ccc(S(N)(=O)=O)cc1)(C2)C3 [(1R,3R,4S,7S)-4-[2-(4-chlorophenoxy)-2-methylpropanamido]-N-[(4-sulfamoylphenyl)methyl]adamantane-1-carboxamide]	0.024 µM	0.051 µM
CC(C)(Oc1ccc(Cl)cc1)C(=O)N[C@H]1C2C[C@@H]3C[C@@H]1C[C@@](C(=O)NCc1ccc(-c4nnn[nH]4)cc1)(C2)C3 [(1R,3R,4S,7S)-4-[2-(4-chlorophenoxy)-2-methylpropanamido]-N-{[4-(1H-1,2,3,4-tetrazol-5-yl)phenyl]methyl}adamantane-1-carboxamide]	0.018 µM	
CC(C)(Oc1ccc(Cl)cc1)C(=O)N[C@H]1C2C[C@@H]3C[C@@H]1C[C@@](C(=O)O)(C2)C3 [(1R,3R,4S,7S)-4-[2-(4-chlorophenoxy)-2-methylpropanamido]adamantane-1-carboxylic acid]	0.07 µM	
CC(C)(Oc1ccccc1Cl)C(=O)N[C@H]1C2C[C@@H]3C[C@@H]1C[C@@](C(=O)NS(=O)(=O)c1ccccc1)(C2)C3 [(1R,3R,4S,7S)-N-(benzenesulfonyl)-4-[2-(2-chlorophenoxy)-2-methylpropanamido]adamantane-1-carboxamide]	1 µM	0.5 µM

Now those with a lower IC50 [1], led by results:

IC50 [1]	IC50 [2]	SMILES
0.01 µM		CC(C)(Oc1ccc(F)cc1Cl)C(=O)N[C@H]1C2C[C@@H]3C[C@@H]1C[C@@](c1nnn[nH]1)(C2)C3 [2-(2-chloro-4-fluorophenoxy)-2-methyl-N-[(1R,2S,5R,7S)-5-(1H-1,2,3,4-tetrazol-5-yl)adamantan-2-yl]propanamide]
0.008 µM		CNC(=O)NC(=O)[C@@]12CC3C[C@H](C[C@H](C1)[C@H]3NC(=O)C(C)(C)Oc1ccc(Cl)cc1)C2 [2-(4-chlorophenoxy)-2-methyl-N-[(1R,2S,5R,7S)-5-{[(methylcarbamoyl)amino]carbonyl}adamantan-2-yl]propanamide]
0.006 µM		CC(C)(Oc1ccc(Cl)cc1)C(=O)N[C@H]1C2C[C@@H]3C[C@@H]1C[C@@](CO)(C2)C3 [2-(4-chlorophenoxy)-N-[(1R,2S,5R,7S)-5-(hydroxymethyl)adamantan-2-yl]-2-methylpropanamide]
0.004 µM		CC(C)(Oc1ccccc1)C(=O)N[C@H]1C2C[C@@H]3C[C@@H]1C[C@@](C(N)=O)(C2)C3 [(1R,3R,4S,7S)-4-(2-methyl-2-phenoxypropanamido)adamantane-1-carboxamide]
0.008 µM	0.008 µM	CC(C)(Oc1ccccc1Cl)C(=O)N[C@H]1C2C[C@@H]3C[C@@H]1C[C@@](C(=O)O)(C2)C3 [(1R,3R,4S,7S)-4-[2-(2-chlorophenoxy)-2-methylpropanamido]adamantane-1-carboxylic acid]
0.011 µM		CC(C)(Oc1ccc(Cl)cc1)C(=O)N[C@H]1C2C[C@@H]3C[C@@H]1C[C@@](C(=O)NCc1cncs1)(C2)C3 [(1R,3R,4S,7S)-4-[2-(4-chlorophenoxy)-2-methylpropanamido]-N-(1,3-thiazol-5-ylmethyl)adamantane-1-carboxamide]
0.003 µM		CC(C)(Oc1ccc(Cl)cc1)C(=O)N[C@H]1C2C[C@@H]3C[C@@H]1C[C@@](C(N)=O)(C2)C3 [(1R,3R,4S,7S)-4-[2-(4-chlorophenoxy)-2-methylpropanamido]adamantane-1-carboxamide]
0.004 µM		COc1ccc(OC(C)(C)C(=O)N[C@H]2C3C[C@@H]4C[C@@H]2C[C@@](C(N)=O)(C3)C4)cc1 [(1R,3R,4S,7S)-4-[2-(4-methoxyphenoxy)-2-methylpropanamido]adamantane-1-carboxamide]
0.004 µM		CC(C)(Oc1ccc(Cl)cc1)C(=O)N[C@H]1C2C[C@@H]3C[C@@H]1C[C@@](C(=O)NCC(N)=O)(C2)C3 [N-[(1R,2S,5R,7S)-5-[(carbamoylmethyl)carbamoyl]adamantan-2-yl]-2-(4-chlorophenoxy)-2-methylpropanamide]

From BindingDB's records for doi:10.1016/j.bmcl.2006.10.074 (Abbott Laboratories, 2007)
